According to US5728724A, “Benzothiophene compounds” (Eli Lilly and Company, priority 1996, dated 1998):
Structures can show the parent of a compound that is named as a salt.

Tests used:
[1] = tested on: uterus of ovariectomized (OVX) rats; experiment: Uterine weight in ovariectomized rats (post-menopausal model, agonist activity); assay type: in vivo, Sprague Dawley rats; conditions: daily for 4 days; for Uterine Weight (% increase vs. OVX): oral
Procedure: (§1) In the examples illustrating the methods, a post-menopausal model was used in which effects of different treatments upon circulating lipids were determined.
(§2) Seventy-five day old female Sprague Dawley rats (weight range of 200 to 225g) were obtained from Charles River Laboratories (Portage, Mich.). The animals were either bilaterally ovariectomized (OVX) or exposed to a Sham surgical procedure at Charles River Laboratories, and then shipped after one week. Upon arrival, they were housed in metal hanging cages in groups of 3 or 4 per cage and had ad libitum access to food calcium content approximately 0.5%) and water for one week. Room temperature was maintained at 22.2°±1.7° C. with a minimum relative humidity of 40%. The photoperiod in the room was 12 hours light and 12 hours dark.
(§3) Dosing Regimen Tissue Collection. After a one week acclimation period (therefore, two weeks post-OVX) daily dosing with test compound was initiated. […] Animals were dosed daily for 4 days. Following the dosing regimen, animals were weighed and anesthetized with a ketamine: Xylazine (2:1, V:V) mixture and a blood sample was collected by cardiac puncture. The animals were then sacrificed by asphyxiation with CO2, the uterus was removed through a midline incision, and a wet uterine weight was determined.

[2] = tested on: Uterine Eosinophil Peroxidase (EPO); experiment: Uterine Eosinophil Peroxidase (EPO) Assay in ovariectomized rats; assay type: in vivo, Sprague Dawley rats; parameters: key: max velocity of A450 increase over a 15 s interval; conditions: oral, daily for 4 days, OVX rats
Procedure: as §1, §2, §3
Uterine Eosinophil Peroxidase (EPO) Assay. Uteri were kept at 4° C. until time of enzymatic analysis. The uteri were then homogenized in 50 volumes of 50 mM Tris buffer (pH-8.0) containing 0.005% Triton X-100. Upon addition of 0.01% hydrogen peroxide and 10 mM O-phenylenediamine (final concentrations) in Tris buffer, increase in absorbance was monitored for one minute at 450 nm. The presence of eosonophils in the uterus is an indication of estrogenic activity of a compound. The maximal velocity of a 15 second interval was determined over the initial, linear portion of the reaction curve.

Serum Cholesterol = experiment: Serum cholesterol analysis in ovariectomized rats; assay type: in vivo, Sprague Dawley rats; conditions: daily for 4 days; for Serum Cholesterol (% decrease vs. OVX): oral
Procedure: as §1, §2, §3
Cholesterol Analysis. Blood samples were allowed to clot at room temperature for 2 hours, and serum was obtained following centrifugation for 10 minutes at 3000 rpm. Serum cholesterol was determined using a Boehringer Mannheim Diagnostics high performance cholesterol assay. Briefly the cholesterol was oxidized to cholest-4-en-3-one and hydrogen peroxide. The hydrogen peroxide was then reacted with phenol and 4-aminophenazone in the presence of peroxidase to produce a p-quinone imine dye, which was read spectrophotemetrically at 500 nm. Cholesterol concentration was then calculated against a standard curve. The entire assay was automated using a Biomek Automated Workstation.

[3] = tested on: MCF-7 breast adenocarcinoma cells; experiment: MCF-7 Proliferation Assay (tritiated thymidine); assay type: cell-based; conditions: 48 hours, tritiated thymidine incorporation; for IC50: Homo sapiens, MCF7
Procedure: MCF-7 breast adenocarcinoma cells (ATCC HTB 22) were maintained in MEM (minimal essential medium, phenol red-free, Sigma, St. Louis, Mo.) supplimented with 10% fetal bovine serum (FBS) (V/V), L-glutamine (2 mM), sodium pyruvate (1 mM), HEPES {(N-[2-hydroxyethyl]piperazine-N'-[2-ethanesulfonic acid]10 mM}, non-essential amino acids and bovine insulin (1 ug/mL) (maintenance medium). Ten days prior to assay, MCF-7 cells were switched to maintenance medium supplemented with 10% dextran coated charcoal stripped fetal bovine serum (DCC-FBS) assay medium) in place of 10% FBS to deplete internal stores of steroids. MCF-7 cells were removed from maintenance flasks using cell dissociation medium (Ca++/Mg++ free HBSS (phenol red-free) supplemented with 10 mM HEPES and 2 mM EDTA). Cells were washed twice with assay medium and adjusted to 80,000 cells/mL. Approximately 100 μL (8,000 cells) were added to flat-bottom microculture wells (Costar 3596) and incubated at 37° C. in a 5% CO2 humidified incubator for 48 hours to allow for cell adherence and equilibration after transfer. Serial dilutions of drugs or DMSO as a diluent control were prepared in assay medium and 50 μL transferred to triplicate microcultures followed by 50 μL assay medium for a final volume of 200 μL. After an additional 48 hours at 37° C. in a 5% CO2 humidified incubator, microcultures were pulsed with tritiated thymidine (1 uCi/well) for 4 hours. Cultures were terminated by freezing at -70° C. for 24 hours followed by thawing and harvesting of microcultures using a Skatron Semiautomatic Cell Harvester. Samples were counted by liquid scintillation using a Wallac BetaPlace β counter. Results in Table 2 below show the IC50 for certain compounds of the present invention.

[4] = Rattus norvegicus, po, 96 h, 0.1 mg/kg, read-out: Uterine Weight (% increase vs. OVX)
[5] = Rattus norvegicus, po, 96 h, 1.0 mg/kg, read-out: Uterine Weight (% increase vs. OVX)
[6] = Rattus norvegicus, po, 96 h, 10.0 mg/kg, read-out: Uterine Weight (% increase vs. OVX)
[7] = Rattus norvegicus, po, 96 h, 0.1 mg/kg, OVX rats, read-out: Serum Cholesterol (% decrease vs. OVX)
[8] = Rattus norvegicus, po, 96 h, 1.0 mg/kg, OVX rats, read-out: Serum Cholesterol (% decrease vs. OVX)
[9] = Rattus norvegicus, po, 96 h, 10.0 mg/kg, OVX rats, read-out: Serum Cholesterol (% decrease vs. OVX)

| SMILES | change in vivo at 0.1 mg/kg [1, 4] | change in vivo at 1 mg/kg [1, 5] | change in vivo at 10 mg/kg [1, 6] | Uterine EPO (V. max) ([2]; 0.1 mg/kg) | Uterine EPO (V. max) ([2]; 1.0 mg/kg) | Uterine EPO (V. max) ([2]; 10.0 mg/kg) | inhibition in vivo at 0.1 mg/kg (Serum Cholesterol; [7]) | inhibition in vivo at 1 mg/kg (Serum Cholesterol; [8]) | inhibition in vivo at 10 mg/kg (Serum Cholesterol; [9]) | IC50 [3] | IC50, MCF-7 proliferation [3] | also measured |
| --- | --- | --- | --- | --- | --- | --- | --- | --- | --- | --- | --- | --- |
| O=C(c1ccc(OCCN2CCCCC2)cc1)c1c(-c2cccc3ccccc23)sc2cc(O)ccc12 [Example 2, [2-(1-Naphthyl)-6-hydroxybenzothien-3-yl][4-[2-(1-piperdinyl)ethoxy]phenyl]methanone] | 28.8% | 28.1% | 21.2% | 4.5 | 4.8 | 3.6 | 56% | 60.6% | 70.6% | 0.8 nM |  |  |
| O=C(c1ccc(OCCN2CCCCC2)cc1)c1c(-c2ccc3ccccc3c2)sc2cc(O)ccc12 [Example 4, [2-(2-Naphthyl)-6-hydroxybenzothien-3-yl][4-[2-(1-piperdinyl)ethoxy]phenyl]methanone] | 72.7% | 46.8% | 59.5% | 12.3 | 42.9 | 35.7 | 48.1% | 54.5% | 63.6% | 80 nM |  |  |
| COc1ccc2c(C(=O)c3ccc(OCCN4CCCCC4)cc3)c(-c3cccs3)sc2c1 [Example 5, [2-(2-Thienyl)-6-methoxybenzothien-3-yl][4-[2-(1-piperdinyl)ethoxy]phenyl]methanone] | 2.4% |  |  | 3.0 | 3.3 | 4.2 |  |  | 26.3% |  | Not active at the concentration tested | Uterine Weight (% increase vs. OVX) ([1]; 1.0 mg/kg): 1.4%; Uterine Weight (% increase vs. OVX) ([1]; 10.0 mg/kg): 28.6%; Serum Cholesterol (% decrease vs. OVX) (Serum Cholesterol; 0.1 mg/kg): 6%; Serum Cholesterol (% decrease vs. OVX) (Serum Cholesterol; 1.0 mg/kg): -10.2% |
| COc1ccc2c(C(=O)c3ccc(OCCN4CCCCC4)cc3)c(-c3cccs3)sc2c1 [Example 6, [2-(2-Thienyl)-6-methoxybenzothien-3-yl][4-[2-(1-piperdinyl)ethoxy]phenyl]methanone hydrochloride] |  |  |  |  |  |  |  |  |  |  |  | Uterine Weight (% increase vs. OVX) ([1]; 0.1 mg/kg, hydrochloride): 3.4%; Uterine Weight (% increase vs. OVX) ([1]; 1.0 mg/kg, hydrochloride): 4.2%; Uterine Weight (% increase vs. OVX) ([1]; 10.0 mg/kg, hydrochloride): 9.5%; Uterine EPO (V. max) ([2]; 0.1 mg/kg, hydrochloride): 3.3; Uterine EPO (V. max) ([2]; 1.0 mg/kg, hydrochloride): 4.8; Uterine EPO (V. max) ([2]; 10.0 mg/kg, hydrochloride): 4.8; Serum Cholesterol (% decrease vs. OVX) (Serum Cholesterol; 0.1 mg/kg, hydrochloride): 23.1%; Serum Cholesterol (% decrease vs. OVX) (Serum Cholesterol; 1.0 mg/kg, hydrochloride): 35.8%; Serum Cholesterol (% decrease vs. OVX) (Serum Cholesterol; 10.0 mg/kg, hydrochloride): 29.6% |
| O=C(c1ccc(OCCN2CCCCC2)cc1)c1c(-c2cccs2)sc2cc(O)ccc12 [Example 7, [2-(2-Thienyl)-6-hydroxybenzothien-3-yl][4-[2-(1-piperdinyl)ethoxy]phenyl]methanone] | -1.7% | 32.4% | 46.9% | 1.8 | 4.5 | 8.4 | -18.6% | -0.9% | 51.4% | 20 nM |  |  |
| COc1ccc2c(C(=O)c3ccc(OCCN4CCCCC4)cc3)c(-c3ccsc3)sc2c1 [Example 8] | 6.6% | 10.3% | 21.3% | 3.0 | 0.9 | 4.2 | -23.4% | -3.5% | 35% |  | Not active at the concentration tested |  |
| O=C(c1ccc(OCCN2CCCCC2)cc1)c1c(-c2ccsc2)sc2cc(O)ccc12 [Example 9] | 8.8% | 1.2% | 54.3% | 0.9 | 3.3 | 2.4 | 0.6% | 29.8% | 31.9% | 10 nM |  |  |
| COc1ccc(Cc2sc3cc(OC)ccc3c2C(=O)c2ccc(OCCN3CCCCC3)cc2)cc1 [Example 10, [2-(4-Methoxyphenyl)methyl-6-methoxybenzothien-3-yl][4-[2-(1-piperdinyl)ethoxy]phenyl]methanone] | -5.6% | 39.2% | 45.2% | 6.6 | 46.2 | 65.4 | 10.3% | 49% | 50% |  | Not active at the concentration tested |  |
| O=C(c1ccc(OCCN2CCCCC2)cc1)c1c(Cc2ccc(O)cc2)sc2cc(O)ccc12 [Example 11, [2-(4-Hydroxyphenyl)methyl-6-hydroxybenzothien-3-yl][4-[2-(1-piperdinyl)ethoxy]phenyl]methanone] | 80.5% | 44.6% | 46.9% | 16.5 | 18.9 | 40.5 | 43% | 35.3% | 68.3% | 5 nM |  | change in vivo at 0.01 mg/kg ([1]; Rattus norvegicus, po, 96 h, 0.01 mg/kg, read-out: Uterine Weight (% increase vs. OVX)): 77.9%; Uterine EPO (V. max) ([2]; 0.01 mg/kg): 33.0; inhibition in vivo at 0.01 mg/kg (Serum Cholesterol; Rattus norvegicus, po, 96 h, 0.01 mg/kg, OVX rats, read-out: Serum Cholesterol (% decrease vs. OVX)): 41% |
